Data as given in the supplement of paper PMC10307832.

Columns and labels:
Test in all cases: relative viability (nuclei count vs DMSO), 5 days (fraction); higher = more cells survive
Nelarabine + Tozasertib = compound: COc1nc(N)nc2c1ncn2[C@@H]1O[C@H](CO)[C@@H](O)[C@@H]1O [Nelarabine] + Cc1cc(Nc2cc(N3CCN(C)CC3)nc(Sc3ccc(NC(=O)C4CC4)cc3)n2)n[nH]1 [Tozasertib] (partner 0.1 µM)
Method in brief: (§1)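 Lung cancer cell lines, seeded in 1536-well plates, were treated the following day by pin tool with a single drug or with five library-drug doses (not always all listed) in √10 steps on top of a fixed anchor-drug dose. Cells were fixed and nuclei stained in one step after 5 days, and nuclei were counted. Relative viability is the nuclei count for treated wells divided by that for vehicle wells, reported as medians of duplicate plates.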

Nelarabine + Vorinostat = compound: COc1nc(N)nc2c1ncn2[C@@H]1O[C@H](CO)[C@@H](O)[C@@H]1O [Nelarabine] + O=C(CCCCCCC(=O)Nc1ccccc1)NO [Vorinostat] (partner 1 µM)
Method in brief: as §1

Adavosertib + Decitabine = compound: C=CCn1c(=O)c2cnc(Nc3ccc(N4CCN(C)CC4)cc3)nc2n1-c1cccc(C(C)(C)O)n1 [Adavosertib] + Nc1ncn([C@H]2C[C@H](O)[C@@H](CO)O2)c(=O)n1 [Decitabine] (partner 2 µM)
Method in brief: as §1

Adavosertib + Crizotinib = compound: C=CCn1c(=O)c2cnc(Nc3ccc(N4CCN(C)CC4)cc3)nc2n1-c1cccc(C(C)(C)O)n1 [Adavosertib] + C[C@@H](Oc1cc(-c2cnn(C3CCNCC3)c2)cnc1N)c1c(Cl)ccc(F)c1Cl [Crizotinib] (partner 1 µM)
Method in brief: as §1

Cell Line | relative viability (Nelarabine + Tozasertib; first compound 0.01 µM) | relative viability (Nelarabine + Tozasertib; first compound 0.03162 µM) | relative viability (Nelarabine + Tozasertib; first compound 0.1 µM) | relative viability (Nelarabine + Tozasertib; first compound 0.3162 µM) | relative viability (Nelarabine + Tozasertib; first compound 1 µM) | relative viability (Nelarabine + Vorinostat; first compound 0.01 µM) | relative viability (Nelarabine + Vorinostat; first compound 0.03162 µM) | relative viability (Nelarabine + Vorinostat; first compound 0.1 µM) | relative viability (Nelarabine + Vorinostat; first compound 0.3162 µM) | relative viability (Nelarabine + Vorinostat; first compound 1 µM) | relative viability (Adavosertib + Decitabine; first compound 0.01 µM) | relative viability (Adavosertib + Decitabine; first compound 0.03162 µM) | relative viability (Adavosertib + Decitabine; first compound 0.1 µM) | relative viability (Adavosertib + Decitabine; first compound 0.3162 µM) | relative viability (Adavosertib + Crizotinib; first compound 0.01 µM) | relative viability (Adavosertib + Crizotinib; first compound 0.03162 µM) | relative viability (Adavosertib + Crizotinib; first compound 0.1 µM) | relative viability (Adavosertib + Crizotinib; first compound 0.3162 µM)
201T | 1.12 | 0.692 | 0.885 | 1.08 | 0.926 | 1.2 | 1.04 | 0.999 | 1.03 | 0.979 | 0.851 | 0.877 | 0.898 | 0.971 | 1.05 | 0.992 | 1.08 | 1.07
NCI-H2342 | 0.532 | 0.513 | 0.446 | 0.478 | 0.462 | 0.933 | 0.753 | 0.806 | 0.74 | 0.728 | 0.72 | 0.768 | 0.755 | 0.932 | – | – | – | –
NCI-H838 | 0.285 | 0.274 | 0.272 | 0.341 | 0.262 | 0.861 | 0.79 | 0.759 | 0.755 | 0.73 | 0.516 | 0.53 | 0.612 | 0.497 | 0.872 | 0.847 | 0.82 | 0.77
NCI-H522 | 0.529 | 0.605 | 0.456 | 0.615 | 0.627 | 1.02 | 0.857 | 0.683 | 0.867 | 0.934 | 0.691 | 0.692 | 0.776 | 0.745 | – | – | – | –
CAL-12T | 0.358 | 0.309 | 0.316 | 0.303 | 0.363 | 0.987 | 0.78 | 0.764 | 0.938 | 0.997 | – | – | – | – | 0.935 | 0.592 | 0.776 | 0.509
NCI-H1755 | 0.683 | 0.524 | 0.561 | 0.645 | 0.557 | 0.954 | 0.742 | 0.682 | 0.861 | 0.873 | 0.717 | 0.689 | 0.775 | 0.725 | 0.885 | 0.882 | 0.911 | 0.739
LCLC-103H | 0.674 | 0.358 | 0.373 | 0.479 | 0.47 | 0.905 | 0.76 | 0.795 | 0.856 | 0.808 | 0.71 | 0.722 | 0.73 | 0.721 | 1.07 | 0.99 | 1.06 | 1.07
NCI-H1666 | 0.626 | 0.572 | 0.606 | 0.578 | 0.632 | 1.03 | 1.03 | 1.18 | 1.09 | 0.964 | 0.629 | 0.616 | 0.73 | 0.703 | 0.926 | 0.963 | 1.01 | 1.05
LC-2-ad | 0.464 | 0.418 | 0.414 | 0.468 | 0.439 | 0.814 | 0.738 | 0.67 | 0.721 | 0.676 | 0.696 | 0.733 | 0.87 | 0.889 | 0.499 | 0.442 | 0.547 | 0.528
PC-3 [JPC-3] | 1.02 | 0.747 | 0.934 | 0.891 | 0.899 | 0.927 | 0.924 | 0.918 | 0.957 | 0.709 | – | 0.906 | 0.926 | 0.78 | 0.996 | 0.905 | 1.06 | 1
